Results: ChEMBL document CHEMBL1201862, “PubChem BioAssay data set” (2004)
Activity calls are given as the source filed them.

What was measured:
[1] = test system: Streptococcus sp. 'group A'; experiment: growth inhibition of control SK(-) GAS strain, dose response, counter-screen for streptokinase expression inhibitor project, luminescence, kanamycin, BacTiterGlo, confirmation (AID 1900); type: functional, organism-based
INS1 = experiment: beta cell apoptosis inhibitors, cytokine rescue, dose response, luminescence, retest (AID 449756); type: functional, cell-based; settings: Rattus norvegicus;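 note: cell death triggered by IL-1 beta plus TNF-alpha plus IFN-gamma mixture; protective hits raise ATP signal compared with cytokine alone wells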
BJ [2] = experiment: cells; type: functional, cell-based; settings: Homo sapiens
[3] = cytotoxicity in HEK-293T cells, dose response, cytotoxicity control for TCR NF-kB inhibitor project, luminescence, T-cell screen hits (AID 489026); type: functional, cell-based;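 note: cells exposed to compound about 14 hours before the viability readout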
[4] = Luminescence Cell-Based Dose Response HTS to Identify Inhibitors of 5'UTR Stem-Loop Driven Prion Protein mRNA Translation in H4 Neuroglioblastoma Cells. [Related pubchem assays: 1827 (Project Summary), 1813 (Primary HTS)]; type: functional
[5] = cytotoxicity toward DRD oncogenic fibroblasts, dose response, cell-based, non-viral oncogenic, luminescence (AID 1934); type: functional; settings: Homo sapiens
[6] = target: Heat shock protein HSP 90-alpha (Homo sapiens, UniProt P07900); type: functional, organism-based
[7] = inhibitors of SNCA 5'UTR-driven reporter translation, confirmation, H4 neuroglioma cells, luminescence (AID 1988); type: functional, cell-based
[8] = target: Glucose-6-phosphate 1-dehydrogenase (Homo sapiens, UniProt P11413); experiment: human G6PD enzyme inhibitors, dose response, selectivity assay for P. falciparum G6PD inhibitor project, biochemical, fluorescence (AID 504792); type: functional
Sequence of Glucose-6-phosphate 1-dehydrogenase (P11413 whole entry): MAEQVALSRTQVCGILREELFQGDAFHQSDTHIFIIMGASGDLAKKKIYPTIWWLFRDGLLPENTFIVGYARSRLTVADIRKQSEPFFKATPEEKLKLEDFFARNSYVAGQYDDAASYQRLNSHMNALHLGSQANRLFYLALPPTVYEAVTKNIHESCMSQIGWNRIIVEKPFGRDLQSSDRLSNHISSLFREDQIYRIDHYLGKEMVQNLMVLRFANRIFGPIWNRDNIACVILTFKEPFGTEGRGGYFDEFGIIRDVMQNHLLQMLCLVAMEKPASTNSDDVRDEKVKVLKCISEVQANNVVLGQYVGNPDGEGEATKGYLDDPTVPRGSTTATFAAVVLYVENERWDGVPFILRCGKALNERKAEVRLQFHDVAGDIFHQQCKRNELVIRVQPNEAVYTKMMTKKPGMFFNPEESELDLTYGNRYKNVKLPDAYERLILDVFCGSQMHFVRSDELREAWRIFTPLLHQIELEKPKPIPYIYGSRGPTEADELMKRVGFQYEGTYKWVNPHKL

BJ [9] = experiment: cytotoxicity toward BJ-TERT-LT-ST fibroblasts, dose response, cell-based, RAS-independent, luminescence (AID 1935); type: functional; settings: Homo sapiens;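 note: BJ fibroblasts immortalized with TERT plus LT and ST oncogenes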
Streptococcus = experiment: Group A Streptococcus viability loss, dose response, counter-screen for streptokinase expression inhibitor project, luminescence, BacTiterGlo (AID 1915); type: functional, organism-based;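 note: potency for reduction of bacterial viability or growth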
Streptokinase A = target: T1, Streptokinase A (Streptococcus pyogenes serotype M1, UniProt P10520); experiment: S. pyogenes streptokinase expression inhibitors, potency, dose response, plasminogen activation absorbance, OD405 (AID 1914); type: functional, Streptococcus pyogenes M1 GAS;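 note: secreted streptokinase activity via plasminogen activation per viability signal from cell pellet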
T1 sequence (P10520 whole entry): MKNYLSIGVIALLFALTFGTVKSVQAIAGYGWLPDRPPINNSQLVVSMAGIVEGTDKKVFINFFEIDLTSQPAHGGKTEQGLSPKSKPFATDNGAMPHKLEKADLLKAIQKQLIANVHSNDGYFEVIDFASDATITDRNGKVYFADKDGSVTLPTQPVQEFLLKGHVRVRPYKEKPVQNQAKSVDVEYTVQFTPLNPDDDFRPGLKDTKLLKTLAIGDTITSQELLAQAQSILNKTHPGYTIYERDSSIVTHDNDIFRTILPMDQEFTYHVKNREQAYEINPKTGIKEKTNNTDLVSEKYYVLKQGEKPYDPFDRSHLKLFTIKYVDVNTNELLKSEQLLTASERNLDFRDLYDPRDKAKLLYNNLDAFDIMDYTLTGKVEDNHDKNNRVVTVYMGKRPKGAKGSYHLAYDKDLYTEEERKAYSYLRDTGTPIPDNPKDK

BJ [10] = experiment: cytotoxicity toward BJ-TERT fibroblasts, dose response, cell-based, RAS-independent, luminescence (AID 1933); type: functional; settings: Homo sapiens
[11] = inhibitors of firefly luciferase expression or activity, dose response, H4 neuroglioma cells, luminescence (AID 1990); type: functional, cell-based
Large T antigen = Large T antigen (Simian virus 40, UniProt P03070); type: functional, Betapolyomavirus macacae;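 note: Confirmatory-stage PubChem screen for compounds that inhibit SV40 T antigen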
Sequence of Large T antigen (P03070 whole entry): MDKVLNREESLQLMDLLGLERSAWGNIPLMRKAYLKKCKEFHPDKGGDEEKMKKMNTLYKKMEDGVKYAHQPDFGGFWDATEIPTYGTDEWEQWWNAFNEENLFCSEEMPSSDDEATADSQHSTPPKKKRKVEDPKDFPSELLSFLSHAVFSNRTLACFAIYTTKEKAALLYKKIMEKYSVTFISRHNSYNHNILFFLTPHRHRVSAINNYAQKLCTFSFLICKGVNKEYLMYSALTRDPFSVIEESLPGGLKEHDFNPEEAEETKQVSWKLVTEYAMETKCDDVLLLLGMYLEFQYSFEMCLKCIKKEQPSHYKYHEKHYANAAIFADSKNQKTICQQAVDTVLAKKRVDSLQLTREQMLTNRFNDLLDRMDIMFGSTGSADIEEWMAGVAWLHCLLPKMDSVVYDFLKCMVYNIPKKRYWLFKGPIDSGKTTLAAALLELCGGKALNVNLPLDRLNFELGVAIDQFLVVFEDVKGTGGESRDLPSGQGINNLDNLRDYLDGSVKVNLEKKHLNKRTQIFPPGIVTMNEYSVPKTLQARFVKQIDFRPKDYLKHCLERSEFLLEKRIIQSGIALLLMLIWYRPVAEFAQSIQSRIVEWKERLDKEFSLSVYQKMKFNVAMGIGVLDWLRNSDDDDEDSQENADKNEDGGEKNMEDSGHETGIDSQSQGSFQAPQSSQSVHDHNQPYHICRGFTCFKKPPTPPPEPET

cells = type: functional
[12] = Luminescence Cell-Based/Microorganism Confirmation at Dose of Inhibitors of Trypanosoma cruzi Infection. [Related pubchem assays: 1885, 1968 ]; type: functional
[13] = inhibitors of intracellular T. cruzi replication, confirmation, NIH3T3 host cells, beta-gal luminescence (AID 2044); type: functional, cell-based;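 note: intracellular parasites grown in NIH/3T3 mouse fibroblasts as host cells; luminescent beta-galactosidase reporter signal from transgenic T. cruzi replicating inside host cells; inhibitors lower the luminescence signal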
[14] = inhibitors of Trypanosoma cruzi host-cell infection, confirmation, beta-gal luminescence, NIH3T3 host cells (AID 2630); type: functional, cell-based; settings: Mus musculus
[15] = Luminescence Cell-Based Secondary HTS screen to identify cytotoxic compounds of NIH3T3 cells. [Related pubchem assays: 1885, 1968 ]; type: functional
[16] = cytotoxicity toward NIH3T3 fibroblasts, dose response, counter-screen, cell-based, ATP luminescence, mouse fibroblasts (AID 2010); type: functional;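 note: cells exposed to compound for about 90 hours before reading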
[17] = target: Alkaline phosphatase, placental type (Homo sapiens, UniProt P05187); experiment: PLAP enzyme inhibitors, confirmation, biochemical, luminescence (AID 1512); type: functional
Sequence of Alkaline phosphatase, placental type (P05187 whole entry): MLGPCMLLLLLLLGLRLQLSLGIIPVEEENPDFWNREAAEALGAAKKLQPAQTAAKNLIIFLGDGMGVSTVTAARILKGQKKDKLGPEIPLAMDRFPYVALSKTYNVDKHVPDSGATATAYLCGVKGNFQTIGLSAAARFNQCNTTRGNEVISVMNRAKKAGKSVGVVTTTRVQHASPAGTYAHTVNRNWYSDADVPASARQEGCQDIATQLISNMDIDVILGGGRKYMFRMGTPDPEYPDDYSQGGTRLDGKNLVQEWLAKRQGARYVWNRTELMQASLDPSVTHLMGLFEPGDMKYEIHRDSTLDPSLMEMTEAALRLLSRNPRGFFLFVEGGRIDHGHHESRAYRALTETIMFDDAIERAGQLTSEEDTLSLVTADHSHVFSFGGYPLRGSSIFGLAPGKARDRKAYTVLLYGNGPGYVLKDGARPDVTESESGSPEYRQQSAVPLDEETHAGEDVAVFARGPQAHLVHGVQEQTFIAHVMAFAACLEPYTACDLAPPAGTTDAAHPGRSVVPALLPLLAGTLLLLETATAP

[18] = target: T2, Voltage-gated N-type calcium channel alpha-1B subunit/Amyloid beta A4 precursor protein-binding family A member 1 (Homo sapiens, UniProt Q00975+Q02410); type: protein assay
T2 sequence (Q00975 whole entry): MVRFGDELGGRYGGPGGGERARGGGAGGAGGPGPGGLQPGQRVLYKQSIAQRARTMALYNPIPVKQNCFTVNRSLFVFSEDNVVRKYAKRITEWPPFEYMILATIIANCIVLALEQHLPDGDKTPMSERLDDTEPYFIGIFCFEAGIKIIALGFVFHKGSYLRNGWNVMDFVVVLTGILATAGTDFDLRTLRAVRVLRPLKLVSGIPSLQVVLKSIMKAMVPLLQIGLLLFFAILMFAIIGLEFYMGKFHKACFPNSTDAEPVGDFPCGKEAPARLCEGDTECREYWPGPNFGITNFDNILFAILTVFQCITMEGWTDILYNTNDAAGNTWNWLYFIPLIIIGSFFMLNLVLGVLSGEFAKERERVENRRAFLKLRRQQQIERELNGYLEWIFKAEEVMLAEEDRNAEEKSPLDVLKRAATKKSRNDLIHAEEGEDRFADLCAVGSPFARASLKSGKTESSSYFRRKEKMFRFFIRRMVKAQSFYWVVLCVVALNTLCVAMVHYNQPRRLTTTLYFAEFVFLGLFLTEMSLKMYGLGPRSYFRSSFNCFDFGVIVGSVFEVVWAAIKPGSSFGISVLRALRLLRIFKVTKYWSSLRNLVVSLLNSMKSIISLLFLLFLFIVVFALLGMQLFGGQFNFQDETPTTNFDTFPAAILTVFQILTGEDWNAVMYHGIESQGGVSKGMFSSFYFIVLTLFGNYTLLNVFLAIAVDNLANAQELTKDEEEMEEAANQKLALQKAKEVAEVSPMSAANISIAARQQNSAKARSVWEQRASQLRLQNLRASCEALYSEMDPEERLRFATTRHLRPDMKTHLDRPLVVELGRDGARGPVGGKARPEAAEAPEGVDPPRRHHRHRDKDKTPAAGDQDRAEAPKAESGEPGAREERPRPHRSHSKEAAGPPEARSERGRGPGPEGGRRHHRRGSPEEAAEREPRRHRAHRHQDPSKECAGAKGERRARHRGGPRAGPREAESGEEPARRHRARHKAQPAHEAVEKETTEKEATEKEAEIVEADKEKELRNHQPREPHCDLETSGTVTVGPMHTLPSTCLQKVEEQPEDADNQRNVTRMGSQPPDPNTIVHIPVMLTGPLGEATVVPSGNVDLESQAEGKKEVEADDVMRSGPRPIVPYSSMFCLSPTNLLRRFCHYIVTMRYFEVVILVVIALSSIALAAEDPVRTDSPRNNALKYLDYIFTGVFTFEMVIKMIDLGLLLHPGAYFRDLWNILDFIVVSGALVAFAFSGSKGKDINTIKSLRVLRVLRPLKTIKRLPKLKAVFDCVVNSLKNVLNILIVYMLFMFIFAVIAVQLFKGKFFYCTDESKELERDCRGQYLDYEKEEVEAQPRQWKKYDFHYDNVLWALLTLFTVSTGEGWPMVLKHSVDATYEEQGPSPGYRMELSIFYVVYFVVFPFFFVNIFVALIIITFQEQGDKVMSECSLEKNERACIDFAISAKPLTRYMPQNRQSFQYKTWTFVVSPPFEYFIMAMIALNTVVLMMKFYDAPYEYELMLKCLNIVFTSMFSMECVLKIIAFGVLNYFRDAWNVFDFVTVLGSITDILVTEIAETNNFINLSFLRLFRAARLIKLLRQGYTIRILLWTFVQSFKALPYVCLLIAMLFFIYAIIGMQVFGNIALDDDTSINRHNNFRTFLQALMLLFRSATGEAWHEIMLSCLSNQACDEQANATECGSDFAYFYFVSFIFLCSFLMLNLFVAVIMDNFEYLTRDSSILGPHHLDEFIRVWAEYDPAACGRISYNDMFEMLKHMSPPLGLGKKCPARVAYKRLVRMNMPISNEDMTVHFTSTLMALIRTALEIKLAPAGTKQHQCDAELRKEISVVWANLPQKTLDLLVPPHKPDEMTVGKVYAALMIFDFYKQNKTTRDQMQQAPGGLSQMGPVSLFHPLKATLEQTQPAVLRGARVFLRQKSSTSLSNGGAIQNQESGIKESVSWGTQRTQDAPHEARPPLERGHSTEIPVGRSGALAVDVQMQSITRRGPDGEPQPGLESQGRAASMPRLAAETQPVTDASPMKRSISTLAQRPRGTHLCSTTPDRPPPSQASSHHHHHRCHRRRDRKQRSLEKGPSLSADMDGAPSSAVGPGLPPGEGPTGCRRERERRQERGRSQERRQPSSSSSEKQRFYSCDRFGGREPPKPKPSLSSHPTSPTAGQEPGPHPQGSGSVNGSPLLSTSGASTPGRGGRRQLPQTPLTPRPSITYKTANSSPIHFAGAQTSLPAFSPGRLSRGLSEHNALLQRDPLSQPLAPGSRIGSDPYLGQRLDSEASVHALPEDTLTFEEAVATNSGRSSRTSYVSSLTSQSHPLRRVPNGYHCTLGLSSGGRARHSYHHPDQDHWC
T2 sequence (Q02410 whole entry): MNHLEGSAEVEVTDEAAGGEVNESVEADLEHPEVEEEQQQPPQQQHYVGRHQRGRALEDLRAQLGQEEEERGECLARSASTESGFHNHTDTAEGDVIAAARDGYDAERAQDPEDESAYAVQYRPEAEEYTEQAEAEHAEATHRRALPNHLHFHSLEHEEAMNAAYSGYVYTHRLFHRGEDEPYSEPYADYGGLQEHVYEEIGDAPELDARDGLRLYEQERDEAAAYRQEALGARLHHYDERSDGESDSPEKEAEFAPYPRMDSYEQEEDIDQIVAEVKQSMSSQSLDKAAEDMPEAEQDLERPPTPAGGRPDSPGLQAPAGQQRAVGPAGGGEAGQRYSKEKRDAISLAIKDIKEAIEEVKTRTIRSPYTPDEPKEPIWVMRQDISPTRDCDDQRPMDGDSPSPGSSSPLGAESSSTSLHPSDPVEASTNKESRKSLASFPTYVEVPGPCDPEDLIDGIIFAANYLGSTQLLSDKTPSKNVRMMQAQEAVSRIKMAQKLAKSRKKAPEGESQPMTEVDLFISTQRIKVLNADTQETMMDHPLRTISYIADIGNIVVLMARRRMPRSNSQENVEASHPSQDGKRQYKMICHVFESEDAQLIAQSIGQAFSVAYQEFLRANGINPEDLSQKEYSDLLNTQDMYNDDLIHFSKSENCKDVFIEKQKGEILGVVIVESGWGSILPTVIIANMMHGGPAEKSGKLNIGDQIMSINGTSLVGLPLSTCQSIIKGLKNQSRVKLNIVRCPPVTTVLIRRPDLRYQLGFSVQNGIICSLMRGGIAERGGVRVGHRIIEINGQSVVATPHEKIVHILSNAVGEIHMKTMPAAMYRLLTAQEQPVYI

[19] = target: T2, Voltage-gated N-type calcium channel alpha-1B subunit/Amyloid beta A4 precursor protein-binding family A member 1; type: protein assay; remark: listed apart in the source
[20] = target: T3, Short transient receptor potential channel 4 (Mus musculus, UniProt Q9QUQ5); experiment: mouse TRPC4 channel inhibitors, dose response, cell-based, HEK293 TRPC4/mu-opioid, Fluo-4 calcium (AID 434942); type: functional;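 note: potency of inhibitors blocking the TRPC4 calcium response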
T3 sequence (Q9QUQ5 whole entry): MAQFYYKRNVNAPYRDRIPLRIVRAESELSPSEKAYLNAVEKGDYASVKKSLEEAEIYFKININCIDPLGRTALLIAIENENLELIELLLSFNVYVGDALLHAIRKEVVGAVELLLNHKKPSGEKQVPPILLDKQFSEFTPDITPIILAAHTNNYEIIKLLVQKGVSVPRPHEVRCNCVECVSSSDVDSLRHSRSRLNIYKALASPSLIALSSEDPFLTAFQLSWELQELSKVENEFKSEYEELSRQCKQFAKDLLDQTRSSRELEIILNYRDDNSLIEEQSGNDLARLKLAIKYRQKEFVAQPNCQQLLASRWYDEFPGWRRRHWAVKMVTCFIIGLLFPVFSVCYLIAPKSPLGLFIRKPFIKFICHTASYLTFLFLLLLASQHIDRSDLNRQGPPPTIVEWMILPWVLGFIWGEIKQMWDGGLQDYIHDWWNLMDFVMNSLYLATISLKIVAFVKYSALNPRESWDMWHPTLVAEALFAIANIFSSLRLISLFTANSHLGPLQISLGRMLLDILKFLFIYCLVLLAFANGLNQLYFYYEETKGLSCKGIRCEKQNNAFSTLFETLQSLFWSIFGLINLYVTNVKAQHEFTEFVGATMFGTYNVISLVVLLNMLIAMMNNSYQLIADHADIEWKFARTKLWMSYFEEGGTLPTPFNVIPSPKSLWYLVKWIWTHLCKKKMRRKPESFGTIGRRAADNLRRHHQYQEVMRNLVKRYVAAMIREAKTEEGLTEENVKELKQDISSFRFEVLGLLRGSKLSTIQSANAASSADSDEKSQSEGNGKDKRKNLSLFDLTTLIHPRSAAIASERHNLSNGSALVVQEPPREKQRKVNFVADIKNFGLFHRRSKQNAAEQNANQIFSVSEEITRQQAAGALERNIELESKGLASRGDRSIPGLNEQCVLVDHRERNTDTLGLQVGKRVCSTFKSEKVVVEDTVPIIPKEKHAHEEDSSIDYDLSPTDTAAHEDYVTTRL

With `COc1cc(/C=C/C(=O)c2ccc([N+](=O)[O-])o2)ccc1O` the EC50 [1] was 3.09 µM (active), the AC50 (INS1) was 2.68 µM (active) and the EC50 (BJ [2]) was > 150 µM (inconclusive). The IC50 [3] was 28.5 µM (inactive), the EC50 [4] was 7.59 µM (active) and the EC50 [5] was 2.04 µM (inconclusive). The AC50 [6] was 4.28 µM (active), the EC50 [7] was 8.16 µM (active) and the IC50 [8] was 60.4 µM (inactive). For the same compound, the EC50 (BJ [9]) was 1.09 µM (inconclusive), the EC50 (Streptococcus) was 11.8 µM (active) and the EC50 (Streptokinase A) was 12.8 µM (active). The EC50 (BJ [10]) was > 150 µM (not active), the EC50 [11] was > 30 µM (not active) and the IC50 (Large T antigen) was 8.65 µM (active).
With `CC(C)(C)OC(=O)N/N=C\c1ccc([N+](=O)[O-])s1` the IC50 (cells) was 27.3 µM (active), the EC50 [12] was 2.46 µM (active) and the EC50 [13] was 2.7 µM (active). For the same compound, the EC50 [14] was 2.46 µM (active), the EC50 [15] was > 195 µM (not active) and the EC50 [16] was > 60 µM (not active).
In the case of `CCn1ncc(/C=N/NC(=O)c2ccc3c(c2)c(C)c(C)n3Cc2ccccc2)c1C`, the IC50 [17] was > 100 µM (inactive).
With `CCO[C@H]1OC(C(=O)NCc2nc3ccccc3[nH]2)=C[C@@H](C2CC2)[C@@H]1CCCO` the IC50 [3] was > 80 µM (inactive).
For `Cc1ccn2c(-c3csc(NCc4ccco4)n3)c(C)nc2c1`, the IC50 [18] was 8.87 µM (active), the IC50 [19] was > 50 µM (inactive) and the EC50 [20] was 1.5 µM (active).
